Data: patent US20110028566A1, “COMPOSITIONS AND PRODUCTS CONTAINING CYCLOALIPHATIC DIOL ANTIMICROBIAL AGENTS AND METHODS OF USING THE COMPOSITIONS AND PRODUCTS” (EASTMAN CHEMICAL COMPANY, priority 2009, published 2011)

Tests used:
Experiment in all cases: Microbial challenge testing in BPW
Assay type in all cases: cell-based
Settings in all cases: BPW, w/v % in label, average of replicates
Pseudomonas aeruginosa = test system: Pseudomonas aeruginosa
Method: (§1) The microorganisms used in challenge tests are given in Table 3, designated as either ATCC (American Type Culture Collection) or wild type. These wild type organisms were problematic organisms previously isolated from chemical products. In the description for each organism, the bacteria are indicated as either GN (Gram negative) or GP (Gram positive).
(§2) All of the microorganisms were grown in Tryptose Soy Broth (TSB), DIFCO™ available from Becton, Dickinson and Company, containing 1% dextrose. Aspergillus niger and Candida albicans were incubated at 22° C.±2° C. for at least 96 hours. All bacteria were incubated at 35° C.±2° C. in a humidified incubator for at least 96 hours.
(§3) The following procedure was followed to determine the amount of each challenge material (inoculum broth) required to produce a 10^8 cfu/mL challenge, which is equivalent to a final test-sample microbial concentration of 10^5 to 10^6 cfu (colony-forming units)/mL.
(§4) Using a sterile serological pipette, 1 mL of the growth from each TSB culture was transferred into tubes containing 9 mL phosphate buffer (pH 7.2) and mixed thoroughly. This process was repeated to make serial 1:10 dilutions. Then 0.1 mL of each sample and dilution was inoculated onto agar plates to produce the equivalent of a further 1:10 dilution. C. albicans and A. niger were inoculated onto SDA and bacteria were inoculated onto Plate Count Agar (PCA), DIFCO™ available from Becton, Dickinson and Company. The 0.1 mL aliquots were evenly distributed on the plates using the spread-plate technique. The spread-plate technique is performed by spreading the aliquot over the entire plate surface using a sterile spreading rod while rotating the plate with a rotary auto-plater. After the inoculum was absorbed completely, each plate was inverted and incubated (fungi at 22° C.±2° C. and bacteria at 35° C.±2° C.).
(§5) After incubation for at least 48 hours, colonies that had developed on the agar plates were counted and recorded with the corresponding dilution. If counting had to be delayed temporarily, plates were refrigerated, preferably no more than 24 hours, until they could be counted. The number of cfu/mL was determined by multiplying the count by the dilution factor for that particular plate.
(§6) Turbidity in Nepholemetric Turbidity Units (NTU) was measured for each serial dilution using the HF-Micro 100 Model Turbidimeter. For each microorganism, the plate counts were compared to the turbidity readings.
(§7) Control substrates (“broth alone”) were prepared for each microorganism separately in triplicate by adding 13.5 mL of BPW (pH 7.0) containing 1% (w/v) dextrose to each 20-mL glass tube; then adding 1.5 mL challenge material to produce a final concentration at time zero of 10^5 to 10^6 cfu/mL and a total volume of 15 mL.
(§8) Test sample substrates were prepared containing each test material (1,4-CHDM, etc) or combination of test materials at the concentrations shown in Tables 5 and 6. Sample substrates were prepared in triplicate, except those substrates containing PE or CG which were prepared in duplicate. Substrates were prepared by adding BPW containing 1% (w/v) dextrose to each 20-mL glass tube, then adding the test material in the amount appropriate to achieve the desired weight/volume percent (g/100 mL) and to obtain a total volume of BPW with dextrose and test material of 13.5 mL. Then 1.5 mL challenge material was added to produce a final concentration at time zero of 10^5 to 10^6 cfu/mL of the respective organism and a total test sample substrate volume of 15 mL.
(§9) After mixing, all challenged substrates were incubated at 35° C.±2° C. for 14 days and then at ambient room temperature.

Burkholderia cepacia = test system: Burkholderia cepacia
Method: as §1, §2, §3, §4, §5, §6, §7, §8, §9

[1] = test system: Staphylococcus epidermidis
Method: as §1, §2, §3, §4, §5, §6, §7, §8, §9

Proteus vulgaris = test system: Proteus vulgaris
Method: as §1, §2, §3, §4, §5, §6, §7, §8, §9

Escherichia coli = test system: Escherichia coli
Method: as §1, §2, §3, §4, §5, §6, §7, §8, §9

Streptococcus mutans = test system: Streptococcus mutans
Method: as §1, §2, §3, §4, §5, §6, §7, §8, §9

Staphylococcus aureus = test system: Staphylococcus aureus
Method: as §1, §2, §3, §4, §5, §6, §7, §8, §9

Aeromonas sp. = test system: Aeromonas sp.
Method: as §1, §2, §3, §4, §5, §6, §7, §8, §9

Bacillus subtilis = test system: Bacillus subtilis
Method: as §1, §2, §3, §4, §5, §6, §7, §8, §9

Question: Which results are given for `O=C([O-])CN(CCN(CC(=O)O)CC(=O)O)CC(=O)[O-].[Na+].[Na+]` [EDTA, ethylenediaminetetraacetic acid disodium salt]?
Answer: Grade code, P. aeruginosa, 3 Days (Pseudomonas aeruginosa; 3 days incubation): 4 (1001 to 10,000 colonies (thus 10,000 cfu/mL to 100,000 cfu/mL)); Grade code, P. aeruginosa, 13 Days (Pseudomonas aeruginosa; 13 days incubation): 4 (1001 to 10,000 colonies (thus 10,000 cfu/mL to 100,000 cfu/mL)); Grade code, P. aeruginosa, 30 Days (Pseudomonas aeruginosa; 30 days incubation): 5 (More than 10,000 colonies estimated (thus >100,000 cfu/mL)); Grade code, B. cepacia, 3 Days (Burkholderia cepacia; 3 days incubation): 4 (1001 to 10,000 colonies (thus 10,000 cfu/mL to 100,000 cfu/mL)); Grade code, B. cepacia, 14 Days (Burkholderia cepacia; 14 days incubation): 4 (1001 to 10,000 colonies (thus 10,000 cfu/mL to 100,000 cfu/mL)); Grade code, B. cepacia, 30 Days (Burkholderia cepacia; 30 days incubation): 4 (1001 to 10,000 colonies (thus 10,000 cfu/mL to 100,000 cfu/mL)); Grade code, S. epidermidis, 3 Days ([1]; 3 days incubation): 4 (1001 to 10,000 colonies (thus 10,000 cfu/mL to 100,000 cfu/mL)); Grade code, S. epidermidis, 13 Days ([1]; 13 days incubation): 3 (101 to 1000 colonies (thus 1000 to 10,000 cfu/mL)); Grade code, S. epidermidis, 30 Days ([1]; 30 days incubation): 4 (1001 to 10,000 colonies (thus 10,000 cfu/mL to 100,000 cfu/mL)); Grade code, P. vulgaris, 3 Days (Proteus vulgaris; 3 days incubation): 5 (More than 10,000 colonies estimated (thus >100,000 cfu/mL)); Grade code, P. vulgaris, 13 Days (Proteus vulgaris; 13 days incubation): 4 (1001 to 10,000 colonies (thus 10,000 cfu/mL to 100,000 cfu/mL)); Grade code, P. vulgaris, 30 Day (Proteus vulgaris; 30 days incubation): 4 (1001 to 10,000 colonies (thus 10,000 cfu/mL to 100,000 cfu/mL)); Grade code, E. coli, 3 Day (Escherichia coli; 3 days incubation): 5 (More than 10,000 colonies estimated (thus >100,000 cfu/mL)); Grade code, E. coli, 14 Day (Escherichia coli; 14 days incubation): 5 (More than 10,000 colonies estimated (thus >100,000 cfu/mL)); Grade code, E. coli, 30 Day (Escherichia coli; 30 days incubation): 5 (More than 10,000 colonies estimated (thus >100,000 cfu/mL)); Grade code, S. mutans, 3 Day (Streptococcus mutans; 3 days incubation): 4 (1001 to 10,000 colonies (thus 10,000 cfu/mL to 100,000 cfu/mL)); Grade code, S. mutans, 13 Day (Streptococcus mutans; 13 days incubation): 4 (1001 to 10,000 colonies (thus 10,000 cfu/mL to 100,000 cfu/mL)); Grade code, S. mutans, 30 Days (Streptococcus mutans; 30 days incubation): 4 (1001 to 10,000 colonies (thus 10,000 cfu/mL to 100,000 cfu/mL)); Grade code, S. aureus, 3 Day (Staphylococcus aureus; 3 days incubation): 5 (More than 10,000 colonies estimated (thus >100,000 cfu/mL)); Grade code, S. aureus, 14 Day (Staphylococcus aureus; 14 days incubation): 4 (1001 to 10,000 colonies (thus 10,000 cfu/mL to 100,000 cfu/mL)); Grade code, S. aureus, 30 Day (Staphylococcus aureus; 30 days incubation): 4 (1001 to 10,000 colonies (thus 10,000 cfu/mL to 100,000 cfu/mL)); Grade code, Aeromonas sp, 3 Days (Aeromonas sp.; 3 days incubation): 5 (More than 10,000 colonies estimated (thus >100,000 cfu/mL)); Grade code, Aeromonas sp, 14 Days (Aeromonas sp.; 14 days incubation): 4 (1001 to 10,000 colonies (thus 10,000 cfu/mL to 100,000 cfu/mL)); Grade code, Aeromonas sp, 30 Days (Aeromonas sp.; 30 days incubation): 4 (1001 to 10,000 colonies (thus 10,000 cfu/mL to 100,000 cfu/mL)); Grade code, B. subtilis, 3 Day (Bacillus subtilis; 3 days incubation): 4 (1001 to 10,000 colonies (thus 10,000 cfu/mL to 100,000 cfu/mL)); Grade code, B. subtilis, 14 Day (Bacillus subtilis; 14 days incubation): 4 (1001 to 10,000 colonies (thus 10,000 cfu/mL to 100,000 cfu/mL)); Grade code, B. subtilis, 30 Days (Bacillus subtilis; 30 days incubation): 4 (1001 to 10,000 colonies (thus 10,000 cfu/mL to 100,000 cfu/mL))
